For series [1], the system named is Gadd45a, ATF3, SmagP, Cacna2d1. Conditions: rat, in vivo.
Series [2] concerns C2C12 cells.
Series [3] deals with PC12 cells.

Where a name gives a salt, the structure may show the parent alone. Read-outs that look alike come from different tables or passages of the source.

As usually defined, the viability is a per cent measure of how many cells are alive, often set against a control. Read a low viability as more harm to the cells.

On to `CN(C)CCC=C1c2ccccc2CCc2ccccc21` [amitriptyline], for which, in series [1], the “expression of Gadd45a, ATF3, SmagP, Cacna2d1 in dorsal root ganglia” value was “dramatically upregulated”.

For `CCCCN1CCCCC1C(=O)Nc1c(C)cccc1C` (stereo not shown) [bupivacaine solution, bupivacaine hydrochloride], the myotoxicity entry in series [2] is “increased with concentration and duration of exposure”. Besides, the neurotoxicity / cytotoxicity result in series [3] is “increased with concentration and duration of exposure”.

With `C[C@@H]1C[C@H]2[C@@H]3CCC4=CC(=O)C=C[C@]4(C)[C@@]3(F)[C@@H](O)C[C@]2(C)[C@@]1(O)C(=O)CO` [dexamethasone], in series [2] (mouse), the myotoxicity entry is on record as “not myotoxic at up to 2 days”, the survival worked out at 80±5% and the viability is more than 90%. The molecule also displayed a decrease in survival in series [3] (rat) of 20%.

(Values after patent US20120034296A1 (priority 2009, published 2012).)
